Assay results from patent US11203601B2, “Tricyclic compounds as glycogen synthase kinase 3 (GSK3) inhibitors and uses thereof” (The Broad Institute, Inc., priority 2017, dated 2021).

Tests used:
Assay in all cases: Carna kinome panel
Assay type in all cases: biochemical
[1] = biological target: p38δ (Homo sapiens (Human), UniProt O15264); settings: read-out: % Inhibition at 10 μM of the test compound
[2] = biological target: YES(T348I) (Homo sapiens (Human), UniProt P07947, T348I); settings: read-out: % Inhibition at 10 μM of the test compound
[3] = biological target: MOS_Cascade (Homo sapiens (Human), UniProt P00540); settings: read-out: % Inhibition at 10 μM of the test compound
[4] = biological target: JAK3 (Homo sapiens (Human), UniProt P52333); settings: read-out: % Inhibition at 10 μM of the test compound
[5] = biological target: IKKε (Homo sapiens (Human), UniProt Q14164); settings: read-out: % Inhibition at 10 μM of the test compound
[6] = biological target: DYRK2 (Homo sapiens (Human), UniProt Q92630); settings: read-out: % Inhibition at 10 μM of the test compound
[7] = biological target: CLK3 (Homo sapiens (Human), UniProt P49761); settings: read-out: % Inhibition at 10 μM of the test compound
[8] = biological target: MRCKα (Homo sapiens (Human), UniProt Q5VT25); settings: read-out: % Inhibition at 10 μM of the test compound
[9] = biological target: TSSK2 (Homo sapiens (Human), UniProt Q96PF2); settings: read-out: % Inhibition at 10 μM of the test compound
[10] = biological target: EPHA8 (Homo sapiens (Human), UniProt P29322); settings: read-out: % Inhibition at 10 μM of the test compound
[11] = biological target: FLT3 (Homo sapiens (Human), UniProt P36888); settings: read-out: % Inhibition at 10 μM of the test compound
[12] = biological target: IGF1R (Homo sapiens (Human), UniProt P08069); settings: read-out: % Inhibition at 10 μM of the test compound
[13] = biological target: FYN(isoform a) (Homo sapiens (Human), UniProt P06241); settings: read-out: % Inhibition at 10 μM of the test compound
[14] = biological target: LCK (Homo sapiens (Human), UniProt P06239); settings: read-out: % Inhibition at 10 μM of the test compound
[15] = biological target: FGFR3 (Homo sapiens (Human), UniProt P22607); settings: read-out: % Inhibition at 10 μM of the test compound
[16] = biological target: MST3 (Homo sapiens (Human), UniProt Q9Y6E0); settings: read-out: % Inhibition at 10 μM of the test compound
[17] = biological target: FGFR2 (Homo sapiens (Human), UniProt P21802); settings: read-out: % Inhibition at 10 μM of the test compound
[18] = biological target: MAP4K2 (Homo sapiens (Human), UniProt Q12851); settings: read-out: % Inhibition at 10 μM of the test compound
[19] = biological target: PGK (Homo sapiens (Human), UniProt Q13976); settings: read-out: % Inhibition at 10 μM of the test compound
[20] = biological target: CLK2 (Homo sapiens (Human), UniProt P49760); settings: read-out: % Inhibition at 10 μM of the test compound
[21] = biological target: PDGFRα(T674I) (Homo sapiens (Human), UniProt P16234, T674I); settings: read-out: % Inhibition at 10 μM of the test compound
[22] = biological target: PDHK2 (Homo sapiens (Human), UniProt Q15119); settings: read-out: % Inhibition at 10 μM of the test compound
[23] = biological target: FLT4 (Homo sapiens (Human), UniProt P35916); settings: read-out: % Inhibition at 10 μM of the test compound
[24] = biological target: IRAK4 (Homo sapiens (Human), UniProt Q9NWZ3); settings: read-out: % Inhibition at 10 μM of the test compound
[25] = biological target: JNK2 (Homo sapiens (Human), UniProt P45984); settings: read-out: % Inhibition at 10 μM of the test compound
[26] = biological target: RET(Y791F) (Homo sapiens (Human), UniProt P07949, Y791F); settings: read-out: % Inhibition at 10 μM of the test compound
[27] = biological target: CGK2 (Homo sapiens (Human), UniProt Q13237); settings: read-out: % Inhibition at 10 μM of the test compound
[28] = biological target: CaMK2α (Homo sapiens (Human), UniProt Q9UQM7); settings: read-out: % Inhibition at 10 μM of the test compound
[29] = biological target: AurA/TPX2 (Homo sapiens (Human), UniProt O14965); settings: read-out: % Inhibition at 10 μM of the test compound
[30] = biological target: ALK (Homo sapiens (Human), UniProt Q9UM73); settings: read-out: % Inhibition at 10 μM of the test compound
[31] = biological target: MST4 (Homo sapiens (Human), UniProt Q9P289); settings: read-out: % Inhibition at 10 μM of the test compound
[32] = biological target: MET(M1250T) (Homo sapiens (Human), UniProt P08581, M1250T); settings: read-out: % Inhibition at 10 μM of the test compound
[33] = biological target: LOK (Homo sapiens (Human), UniProt O94804); settings: read-out: % Inhibition at 10 μM of the test compound
[34] = biological target: PASK (Homo sapiens (Human), UniProt Q96RG2); settings: read-out: % Inhibition at 10 μM of the test compound
[35] = tested on: RAF1_Cascade
Procedure: Briefly, a selection of compounds was screened against a panel of kinases at a single concentration of 10 μM. […] This was completed using one of two assays, depending on the kinase being examined: 1) IMAP Assay. A solution of 4× inhibitor, 4× substrate/ATP/metal solution and 2× kinase solution was prepared with assay buffer (20 mM HEPES, 0.01% Tween-20, 2 mM DTT, pH 7.4) and mixed, then incubated in 384-well black plates for 1 hour at room temperature. The IMAP binding reagent (IMAP Screening Express kit; Molecular Devices) was added to each well and incubated for 30 minutes. […] 2) Off-Chip Mobility Shift Assay (MSA). A solution of 4× inhibitor, 4× substrate/ATP/metal solution and 2× kinase solution was prepared with assay buffer (20 mM HEPES, 0.01% Triton X-100, 2 mM DTT, pH 7.5) and mixed, then incubated in 384-well plates for 1 or 5 hours depending on the kinase, at room temperature. Termination buffer (QuickScout Screening assist MSA; Carna Biosciences) was added to each well. The entire reaction mixture was then applied to a LabChip3000 system (Caliper Life Science), and the product and substrate peptide peaks were separated and quantified. […] The entire reaction mixture was then applied to a LabChip3000 system (Caliper Life Science), and the product and substrate peptide peaks were separated and quantified.

[36] = biological target: CLK1 (Homo sapiens (Human), UniProt P49759); settings: read-out: % Inhibition at 10 μM of the test compound
[37] = biological target: NPM1-ALK (Homo sapiens (Human), UniProt P06748+Q9UM73); settings: read-out: % Inhibition at 10 μM of the test compound
[38] = biological target: TEC (Homo sapiens (Human), UniProt P42680); settings: read-out: % Inhibition at 10 μM of the test compound
[39] = biological target: PDGFRα (Homo sapiens (Human), UniProt P16234); settings: read-out: % Inhibition at 10 μM of the test compound
[40] = biological target: BMX (Homo sapiens (Human), UniProt P51813); settings: read-out: % Inhibition at 10 μM of the test compound
[41] = biological target: MAPKAPK2 (Homo sapiens (Human), UniProt P49137); settings: read-out: % Inhibition at 10 μM of the test compound

RET(Y791F), sequence (P07949 29-1114 Y791F): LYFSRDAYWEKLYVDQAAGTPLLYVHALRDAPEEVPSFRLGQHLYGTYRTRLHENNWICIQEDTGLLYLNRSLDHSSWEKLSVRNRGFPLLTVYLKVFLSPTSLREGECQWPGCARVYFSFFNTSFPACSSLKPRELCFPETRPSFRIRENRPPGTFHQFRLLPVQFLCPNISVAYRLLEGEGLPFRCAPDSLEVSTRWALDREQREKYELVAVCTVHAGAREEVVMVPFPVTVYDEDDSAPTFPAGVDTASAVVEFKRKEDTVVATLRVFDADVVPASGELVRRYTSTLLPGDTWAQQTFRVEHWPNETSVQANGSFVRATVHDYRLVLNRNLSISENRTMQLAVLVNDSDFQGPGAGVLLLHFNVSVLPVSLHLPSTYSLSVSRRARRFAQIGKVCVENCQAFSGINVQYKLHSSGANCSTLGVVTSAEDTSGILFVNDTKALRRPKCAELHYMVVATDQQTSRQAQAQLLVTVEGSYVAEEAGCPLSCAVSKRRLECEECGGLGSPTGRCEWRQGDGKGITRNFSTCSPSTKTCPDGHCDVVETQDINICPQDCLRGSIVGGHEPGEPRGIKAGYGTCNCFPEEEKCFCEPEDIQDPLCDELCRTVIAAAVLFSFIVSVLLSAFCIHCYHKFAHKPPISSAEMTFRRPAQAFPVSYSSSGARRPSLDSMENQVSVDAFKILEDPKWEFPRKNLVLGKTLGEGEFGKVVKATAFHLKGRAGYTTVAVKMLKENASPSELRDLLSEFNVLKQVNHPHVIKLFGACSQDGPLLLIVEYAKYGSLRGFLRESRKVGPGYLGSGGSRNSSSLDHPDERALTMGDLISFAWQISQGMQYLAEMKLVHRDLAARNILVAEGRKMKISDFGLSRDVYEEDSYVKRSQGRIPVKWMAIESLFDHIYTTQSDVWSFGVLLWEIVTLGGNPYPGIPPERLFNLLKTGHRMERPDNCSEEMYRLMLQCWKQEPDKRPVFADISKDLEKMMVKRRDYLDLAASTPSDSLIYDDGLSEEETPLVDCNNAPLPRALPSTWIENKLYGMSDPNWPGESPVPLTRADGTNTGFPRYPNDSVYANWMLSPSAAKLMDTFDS
CLK2, sequence (P49760 whole entry, species assumed): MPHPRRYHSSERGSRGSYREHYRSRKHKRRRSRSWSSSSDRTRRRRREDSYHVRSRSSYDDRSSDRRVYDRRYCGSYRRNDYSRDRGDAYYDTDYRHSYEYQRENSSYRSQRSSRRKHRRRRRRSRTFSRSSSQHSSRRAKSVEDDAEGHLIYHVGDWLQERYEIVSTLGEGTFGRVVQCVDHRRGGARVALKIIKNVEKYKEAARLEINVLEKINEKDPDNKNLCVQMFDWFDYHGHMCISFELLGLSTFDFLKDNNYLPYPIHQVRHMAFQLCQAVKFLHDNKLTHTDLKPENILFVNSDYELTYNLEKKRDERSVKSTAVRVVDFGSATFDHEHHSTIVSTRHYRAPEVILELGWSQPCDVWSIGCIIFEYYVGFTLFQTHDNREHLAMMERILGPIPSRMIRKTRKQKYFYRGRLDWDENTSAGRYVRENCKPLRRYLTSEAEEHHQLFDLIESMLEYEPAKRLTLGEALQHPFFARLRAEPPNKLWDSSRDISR
NPM1-ALK, sequence (Q9UM73 other isoform, or with tags, fused parts or gaps): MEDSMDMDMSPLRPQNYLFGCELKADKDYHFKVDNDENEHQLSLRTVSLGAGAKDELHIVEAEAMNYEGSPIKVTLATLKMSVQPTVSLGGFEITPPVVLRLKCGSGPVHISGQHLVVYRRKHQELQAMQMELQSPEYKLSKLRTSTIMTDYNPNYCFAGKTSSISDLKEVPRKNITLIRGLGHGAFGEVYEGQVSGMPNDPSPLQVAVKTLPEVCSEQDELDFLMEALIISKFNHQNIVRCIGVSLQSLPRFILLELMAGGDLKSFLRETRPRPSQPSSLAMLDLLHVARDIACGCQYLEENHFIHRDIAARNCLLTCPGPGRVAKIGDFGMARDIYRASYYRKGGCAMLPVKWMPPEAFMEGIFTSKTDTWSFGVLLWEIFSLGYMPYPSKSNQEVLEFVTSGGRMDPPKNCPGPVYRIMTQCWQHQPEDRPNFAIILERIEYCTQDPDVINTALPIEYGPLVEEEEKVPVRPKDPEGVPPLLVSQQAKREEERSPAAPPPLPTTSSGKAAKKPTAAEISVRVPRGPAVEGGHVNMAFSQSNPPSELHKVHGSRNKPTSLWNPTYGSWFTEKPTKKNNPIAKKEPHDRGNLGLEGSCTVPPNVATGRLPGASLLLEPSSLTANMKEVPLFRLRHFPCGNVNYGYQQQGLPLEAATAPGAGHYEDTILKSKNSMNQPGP
MST3, sequence (Q9Y6E0 whole entry, species assumed): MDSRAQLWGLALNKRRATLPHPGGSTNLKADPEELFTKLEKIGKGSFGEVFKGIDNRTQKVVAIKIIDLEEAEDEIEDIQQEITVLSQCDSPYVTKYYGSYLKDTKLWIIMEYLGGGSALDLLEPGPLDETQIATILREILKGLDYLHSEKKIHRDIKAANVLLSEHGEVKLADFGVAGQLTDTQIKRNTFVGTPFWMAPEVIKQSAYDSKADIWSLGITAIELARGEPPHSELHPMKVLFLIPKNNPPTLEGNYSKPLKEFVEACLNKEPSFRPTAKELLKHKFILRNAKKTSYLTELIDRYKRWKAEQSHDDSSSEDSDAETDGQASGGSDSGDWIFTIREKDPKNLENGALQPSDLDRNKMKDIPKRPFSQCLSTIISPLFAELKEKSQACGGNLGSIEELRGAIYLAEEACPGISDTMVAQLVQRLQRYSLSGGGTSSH
IRAK4, sequence (Q9NWZ3 whole entry): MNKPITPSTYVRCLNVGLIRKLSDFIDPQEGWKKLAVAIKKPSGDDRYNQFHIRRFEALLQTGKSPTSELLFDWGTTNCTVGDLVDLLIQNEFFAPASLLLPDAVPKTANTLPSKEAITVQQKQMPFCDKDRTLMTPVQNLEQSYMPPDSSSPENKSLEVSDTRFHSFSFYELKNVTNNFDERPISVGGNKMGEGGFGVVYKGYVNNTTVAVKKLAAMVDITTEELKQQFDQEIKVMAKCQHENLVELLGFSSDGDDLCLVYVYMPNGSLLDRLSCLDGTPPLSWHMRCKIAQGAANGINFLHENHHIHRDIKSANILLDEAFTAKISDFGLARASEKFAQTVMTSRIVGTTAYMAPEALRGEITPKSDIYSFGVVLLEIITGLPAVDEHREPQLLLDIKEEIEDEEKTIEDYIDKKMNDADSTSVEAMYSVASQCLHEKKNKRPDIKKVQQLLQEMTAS
MRCKα, sequence (Q5VT25 whole entry): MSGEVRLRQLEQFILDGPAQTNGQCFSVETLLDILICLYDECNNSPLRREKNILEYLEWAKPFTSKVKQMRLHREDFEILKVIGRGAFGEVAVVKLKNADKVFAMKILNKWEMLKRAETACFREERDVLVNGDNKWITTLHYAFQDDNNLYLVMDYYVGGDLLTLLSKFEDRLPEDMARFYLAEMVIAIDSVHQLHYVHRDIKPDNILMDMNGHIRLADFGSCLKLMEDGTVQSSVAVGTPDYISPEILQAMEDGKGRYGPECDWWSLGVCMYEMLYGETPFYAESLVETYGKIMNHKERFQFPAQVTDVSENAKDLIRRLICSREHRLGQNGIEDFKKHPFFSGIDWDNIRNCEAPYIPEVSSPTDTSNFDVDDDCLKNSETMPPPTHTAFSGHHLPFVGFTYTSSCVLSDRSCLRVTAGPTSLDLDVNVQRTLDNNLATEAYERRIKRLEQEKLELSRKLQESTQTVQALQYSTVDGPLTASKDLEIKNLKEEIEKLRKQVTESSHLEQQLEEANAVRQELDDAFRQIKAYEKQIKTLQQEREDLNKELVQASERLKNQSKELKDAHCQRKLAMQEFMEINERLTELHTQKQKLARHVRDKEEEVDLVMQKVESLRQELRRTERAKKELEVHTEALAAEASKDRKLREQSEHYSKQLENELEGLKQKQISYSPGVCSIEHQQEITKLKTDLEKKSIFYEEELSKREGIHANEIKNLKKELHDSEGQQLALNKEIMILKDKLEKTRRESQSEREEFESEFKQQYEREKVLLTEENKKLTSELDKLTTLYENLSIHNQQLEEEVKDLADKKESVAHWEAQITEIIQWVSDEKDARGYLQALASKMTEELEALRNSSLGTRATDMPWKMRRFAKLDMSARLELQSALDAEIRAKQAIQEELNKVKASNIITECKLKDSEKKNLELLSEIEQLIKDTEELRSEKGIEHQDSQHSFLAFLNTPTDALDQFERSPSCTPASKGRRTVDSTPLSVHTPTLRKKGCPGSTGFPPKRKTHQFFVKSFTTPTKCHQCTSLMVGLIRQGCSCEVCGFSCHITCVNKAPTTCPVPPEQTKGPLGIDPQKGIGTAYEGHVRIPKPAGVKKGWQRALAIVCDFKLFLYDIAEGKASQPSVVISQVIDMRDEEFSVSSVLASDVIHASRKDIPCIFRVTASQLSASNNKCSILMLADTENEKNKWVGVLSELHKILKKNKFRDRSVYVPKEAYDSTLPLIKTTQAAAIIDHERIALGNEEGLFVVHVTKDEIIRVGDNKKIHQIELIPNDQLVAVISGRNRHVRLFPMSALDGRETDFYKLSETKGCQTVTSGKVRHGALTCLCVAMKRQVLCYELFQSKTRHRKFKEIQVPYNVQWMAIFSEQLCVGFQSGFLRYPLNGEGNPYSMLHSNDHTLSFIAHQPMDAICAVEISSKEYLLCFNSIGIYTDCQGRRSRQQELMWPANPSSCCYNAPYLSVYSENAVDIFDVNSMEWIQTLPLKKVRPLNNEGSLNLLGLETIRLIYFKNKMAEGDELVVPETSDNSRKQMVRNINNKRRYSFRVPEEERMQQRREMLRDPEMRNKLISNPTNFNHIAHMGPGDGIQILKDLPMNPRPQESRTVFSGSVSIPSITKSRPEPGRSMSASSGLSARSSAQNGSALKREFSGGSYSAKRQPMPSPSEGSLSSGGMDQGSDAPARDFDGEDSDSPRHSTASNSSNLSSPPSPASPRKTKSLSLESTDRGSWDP

CCC1(c2ccccc2)C2=C(CC(C)(C)CC2=O)Nc2ncsc21 (centres unmarked) [Compound 1, 9-Ethyl-6,6-dimethyl-9-phenyl-5,6,7,9-tetrahydrothiazolo[4,5-b]quinolin-8(4H)-one]
inhibition at 10 µM [1]: 18% | inhibition at 10 µM [2]: 13.5% | inhibition at 10 µM [3]: 12.4% | inhibition at 10 µM [4]: 6.9% | inhibition at 10 µM [5]: 4.2% | inhibition at 10 µM [6]: 4% | inhibition at 10 µM [7]: 3.9% | inhibition at 10 µM [8]: 3.3% | inhibition at 10 µM [9]: 3.1% | inhibition at 10 µM [10]: 3% | inhibition at 10 µM [11]: 2.9% | inhibition at 10 µM [12]: 2% | inhibition at 10 µM [13]: 1.8% | inhibition at 10 µM [14]: 1.7% | inhibition at 10 µM [15]: 1.6% | inhibition at 10 µM [16]: 1.4% | inhibition at 10 µM [17]: 1.4% | inhibition at 10 µM [18]: 1.1% | inhibition at 10 µM [19]: 0.9% | inhibition at 10 µM [20]: 0.9% | inhibition at 10 µM [21]: 0.3% | inhibition at 10 µM [22]: 0.1% | inhibition at 10 µM [23]: -0.2% | inhibition at 10 µM [24]: -1.2% | inhibition at 10 µM [25]: -1.5% | inhibition at 10 µM [26]: -1.6% | inhibition at 10 µM [27]: -1.6% | inhibition at 10 µM [28]: -1.6% | inhibition at 10 µM [29]: -2.7% | inhibition at 10 µM [30]: -3.1% | inhibition at 10 µM [31]: -3.3% | inhibition at 10 µM [32]: -4.2% | inhibition at 10 µM [33]: -4.7% | inhibition at 10 µM [34]: -5.2% | % Inhibition at 10 μM of the test compound [35]: −6.7% | inhibition at 10 µM [36]: -7.2% | inhibition at 10 µM [37]: -7.5% | inhibition at 10 µM [38]: -9.1% | inhibition at 10 µM [39]: -10.1% | inhibition at 10 µM [40]: -10.6% | inhibition at 10 µM [41]: -13.4%
